According to article PMC7142784, “Antimalarial Peptide and Polyketide Natural Products from the Fijian Marine Cyanobacterium Moorea producens” (Marine Drugs, 2020):
Like-named read-outs stand apart in the source and are kept apart here.

Assays:
[1] = tested on: HEK293T cells; assay: HEK293T cytotoxicity; conditions: for HEK293T Cytotoxicity, half-maximal cytotoxicity concentration: HEK293T cells
Procedure: A previously described method was utilized to evaluate cytotoxicity against HepG2 and HEK293T cells as a measure of general human toxicity. Assay data generated for Plasmodium was analyzed with a Genedata Screener (v13.0-Standard). Inhibitors (puromycin for cytotoxicity and atovaquone for liver-stage parasites) were subtracted from neutral controls to normalize data. The Smart Fit function of the Genedata Analyzer generated dose-response curves that were used to calculate the half-maximal effective concentrations (EC50).

[2] = tested on: liver-stage P. berghei (Pb-Luc sporozoites in HepG2 cells); assay: microbe, parasite or virus in culture; type: cell-based, Plasmodium berghei; conditions: read-out: Liver-Stage P. berghei half-maximal effective concentration (EC50)
Procedure: Activity against liver-stage P. berghei was quantified for extracts, fractions, and pure compounds using a slightly modified 48 h luminescence-based assay. The salivary gland of infected Anopheles stephensi was dissected to harvest P. berghei-ANKA-GFP-LucSMCON (Pb-Luc) sporozoites (originally received from Dr. Ana Rodriguez of NYU School of Medicine; last round of testing to evaluate pure 1, 3–5 used infected mosquitoes from Elizabeth Winzeler at UCSD and Dennis Kyle at UGA) which were filtered through a 20 μm nylon net filter twice (Steriflip, Millipore, MA), counted with a hemocytometer, and adjusted to achieve a final concentration of 200 sporozoites/1 μL in the assay media (DMEM without Phenol Red (Life Technologies, CA), 5% FBS, and 5 × Pen−Strep and glutamine (Life Technologies, CA)). A Multi-Flo (BioTek, VT) with a 1 μL cassette was used to transfer purified sporozoites, 1 × 10^3 sporozoites per well (5 μL), to assay plates containing HepG2 cells. After incubation at 37 °C for 48 h, a bioluminescence measurement was taken to assess the liver-stage growth. More specifically, media was removed by inverting the plates, and spinning them at 150 × g for 30 s, and 2 μL per well of BrightGlo (Promega, WI) was added for quantification of Pb-Luc viability. The luminescence was measured immediately after addition of the luminescence reagent using an Envision Multilabel Reader (PerkinElmer, MA).

[3] = tested on: HepG2 cells; assay: HepG2 cytotoxicity; type: cell-based, human; conditions: for HepG2 Cytotoxicity, half-maximal cytotoxicity concentration: HepG2 cells
Procedure: A previously described method was utilized to evaluate cytotoxicity against HepG2 and HEK293T cells as a measure of general human toxicity [52]. Assay data generated for Plasmodium was analyzed with a Genedata Screener (v13.0-Standard). Inhibitors (puromycin for cytotoxicity and atovaquone for liver-stage parasites) were subtracted from neutral controls to normalize data. The Smart Fit function of the Genedata Analyzer generated dose-response curves that were used to calculate the half-maximal effective concentrations (EC50).

[4] = tested on: asexual blood-stage P. falciparum strain Dd2L; assay: asexual blood-stage P. falciparum assay with SYBR Green detection; type: cell-based, Plasmodium falciparum; conditions: for blood-stage antimalarial activity (in words): P. falciparum; for EC50: Plasmodium falciparum, 72 h
Procedure: A standard method for evaluating antimalarial activity with asexual blood-stage P. falciparum and SYBR Green detection was used to assess the potency of extracts, fractions, and compounds [50]. Screening media was prepared from complete media supplemented with 0.05% Albumax II (but without human serum). Dr. David Fidock of Columbia University provided P. falciparum strain Dd2L, which was cultured with fresh O+ erythrocytes (TSRI Normal Blood Donation). Compounds were transferred to assay plates using a Labcyte ECHO acoustic liquid handler. Fresh and parasitized erythrocytes were prepared in screening media before inoculating plates (Multi-Flo; BioTek, VT) with a final hematocrit of 2.5% and a final parasitemia of 0.3%. The assay plates were incubated for 72 h in a chamber at 37 °C with a low oxygen gas formulation with daily gas exchanges. After incubation, a Multi-Flo liquid dispenser transferred SYBR Green lysis buffer to the wells, and the plates were incubated for another 24 h at room temperature to achieve optimal development of fluorescence signal, which was read by an Envision Multimode Reader (PerkinElmer, MA).

[5] = molecular target: T1, rabbit muscle actin (Oryctolagus cuniculus, UniProt P68135); assay: actin polymerization assay (pyrene-labeled rabbit muscle actin); type: biochemical
T1 construct: purchased Abcam ab239724
Description: Of the proteins predicted to bind to kakeromamide (1), actin and sortilin were deemed worthy of further evaluation given their higher predicted binding values. However, no in vitro sortilin assay is available. In contrast, actin polymerization assays are frequently employed to assess agents that affect actin dynamics, albeit using mammalian homologs of actin. Since 1 was predicted to bind to both Plasmodium and mammalian actin proteins but only mammalian actin assays are commercially available, an actin polymerization assay that uses pyrene-labeled rabbit muscle actin was employed. Several natural products are known to disrupt actin’s function by either inhibiting or stabilizing polymerization, which could arise from ligand binding. Since apicomplexan actins (including those of Plasmodium) and mammalian actins are relatively divergent, Plasmodium actin might be a useful molecular target. […] Similar activity by 1 could be one possible explanation for the observed increase in actin polymerization with increasing concentrations of 1. Although 1 appears to impact mammalian actin polymerization, future tests evaluating the impact of 1 on Plasmodium actin function would be worthwhile in order to further elucidate whether interactions with actin are relevant to this natural product’s mechanism of action on the malaria parasite.
The computationally predicted binding of 1 to actin was experimentally evaluated using a rabbit muscle actin polymerization assay kit from Abcam (kit ab239724) using the manufacturer’s protocol. Mean signal for n = 3 (actin polymerization control, solvent control, and background) or n = 2 (four different concentrations of latrunculin A and kakeromamide B) replicates was acquired for time points taken every 30 s for 1 h on a Synergy H4 plate reader. The results were plotted in GraphPad Prism 8 with an exponential plateau curve.

[6] = Plasmodium berghei, HepG2, 48 h, sporozoites from University of California San Diego (UCSD), 48 h
[7] = Plasmodium berghei, HepG2, 48 h, sporozoites from the University of Georgia (UGA), 48 h
[8] = read-out: Blood-Stage P. falciparum half-maximal effective concentration (EC50), asexual blood-stage, strain Dd2L, 72 h, SYBR Green
[9] = Plasmodium berghei, HepG2, 48 h

Structure (SMILES) | HEK293T Cytotoxicity, half-maximal cytotoxicity concentration [1] | EC50 [2, 6] | EC50 [2, 7] | HepG2 Cytotoxicity, half-maximal cytotoxicity concentration [3] | blood-stage antimalarial activity (in words) [4] | EC50 [4, 8] | also measured
O=C1C(O)=C([C@H]2CC[C@H](c3ccc(Cl)cc3)CC2)C(=O)c2ccccc21 [Atovaquone, reference compound] | >2.0 µM | 0.0037 µM | 0.0017 µM | – | – | – | EC50 ([2]; Plasmodium berghei, HepG2, 48 h, sporozoites sourced from New York University (NYU) School of Medicine, 48 h): < 0.00028 µM
CCCCCC1NC(=O)c2csc(n2)C(C)NC(=O)C(Cc2ccc(OC)cc2)N(C)C(=O)C(Cc2ccc(OC)cc2)N(C)C(=O)C(C(C)C)NC(=O)C1C (stereo not shown) [Compound 1, kakeromamide B] | >23 µM | > 12 µM | 11 µM | >23 µM | only moderately active | 8900 nM | cytotoxicity against HepG2 / human liver cells (in words) ([3]; HepG2 human cell line): did not exhibit toxicity; cytotoxicity against HEK293T (in words) ([1]; HEK293T human cell line): did not exhibit toxicity; effect on mammalian actin polymerization (in words) ([5]; dose dependence): stimulated actin polymerization in a dose-dependent manner; effect on actin polymerization relative to controls ([5]; highest tested concentration, 25 µM, Figure S23): enhancing actin polymerization; effect on actin polymerization relative to controls ([5]; lowest tested concentration, 0.025 µM, Figure S23): moderately suppressed polymerization
CCC[C@H]1NC(=O)c2csc(n2)[C@H](C)NC(=O)[C@H](C(C)C)N(C)C(=O)[C@H](Cc2ccccc2)N(C)C(=O)[C@H](C)OC(=O)[C@@H]1C [Compound 2, ulongamide A] | >4.8 µM | – | – | – | – | – | EC50 ([4]; read-out: Blood-Stage P. falciparum half-maximal effective concentration (EC50)): 990 nM; EC50 [2, 9]: > 4 µM
CC[C@H](C)[C@@H]1NC(=O)CNC(=O)c2csc(n2)[C@H](C(C)(C)O)OC(=O)C(C)(C)[C@H](CCCC(C)(Cl)Cl)OC(=O)c2csc1n2 [Compound 3, lyngbyabellin A] | 19 µM | – | – | 3.3 µM | – | 1.5 nM | selectivity index for Plasmodium versus HepG2 ([3]; blood-stage P. falciparum versus human liver carcinoma cells (HepG2)): 2,200; selectivity index for Plasmodium versus HEK293T ([1]; blood-stage P. falciparum versus normal kidney epithelial cells (HEK293T)): 13,000; EC50 [2, 9]: > 10 µM; EC50 ([2]; sporozoites from University of California San Diego (UCSD), 48 h): > 10 µM
CO[C@@H]1[C@@H](OC)[C@H](C)O[C@@H](O[C@@H]2C[C@@H]3CC[C@H](C)[C@@H](O)C[C@](C)(CC/C=C/C=C/Br)OC(=O)C[C@](O)(C2)O3)[C@@H]1OC [Compound 4, 18E-lyngbyaloside C] | >31 µM | > 16 µM | 7.1 µM | 17 µM | inactive | > 19000 nM | –
CO[C@@H]1[C@@H](OC)[C@H](C)O[C@@H](O[C@@H]2C[C@H]3O[C@@](O)(C2)[C@H](C)C(=O)O[C@@H](/C=C/C=C/Br)C[C@@H](C)/C=C\C[C@H](O)[C@@H]3C)[C@@H]1OC [Compound 5, lyngbyaloside] | >13 µM | > 6.3 µM | 4.5 µM | >13 µM | inactive | > 7900 nM | –
CC1(C)c2nc(-c3ccc(F)cc3)c(Nc3ccc(F)cc3)n2CCN1C(=O)CN [ganaplacide, reference compound] | – | – | – | – | – | 5.9 nM | –
C/C1=C/C(=O)O[C@@H]2C[C@@H](CC[C@H](C)/C=C\C=C\CC1)O[C@@](O)([C@@H]1CSC(=O)N1)C2 [latrunculin A, reference compound] | – | – | – | – | – | – | concentrations at which actin polymerization was suppressed ([5]; Figure S23): above 1.2 µM
OC(c1cc(C(F)(F)F)nc2c(C(F)(F)F)cccc12)C1CCCCN1 (stereo not shown) [mefloquine, reference compound] | – | – | – | – | – | 2.9 nM | –
